“And” between values parts separate entries of the source, which are not always exact repeats. Identical values can stand only once.
Legend:
neural stem cells = assay: Neural stem cell culture: secondary sphere formation from dissociated primary spheres (self-renewal); format: cell-based, mice; conditions: for number of secondary spheres: EGF or EGF plus LH (30 nM), limited density, Exp. #1-#3
Procedure: Generation and differentiation of spheres from embryonic and adult forebrain were performed as described previously with minor modifications (Reynolds and Weiss, 1992; Reynolds et al., 1992). Briefly, striato-pallidum complexes were removed from mouse embryos at E14 and collected into PBS containing 0.6% glucose, penicillin (50 U/ml), and streptomycin (50 U/ml; both from Life Technologies, Gaithersburg, Md.) and then transferred into the standard culture medium composed of DMEM-F-12 (1:1), glucose (0.6%), glutamine (2 mM), sodium bicarbonate (3 mM), HEPES buffer (5 mM), insulin (25 μg/ml), transferrin (100 μg/ml), progesterone ([…]), putrescine (60 μM), and selenium chloride (30 nM) (all from Sigma, St. Louis, Mo., except glutamine from Life Technologies) For adult neural stem cell cultures, medial and lateral portions of the lateral ventricle subependyma from the adult brain were dissected from both hemispheres, pooled together, subsequently cut into 1 mm^2 fragments, and transferred into the standard culture medium containing 1.33 mg/ml trypsin, 0:67 mg/ml hyaluronidase, and 0.2 mg/ml kynurenic acid (all from Sigma). After 30 min at 37° C., the tissue was transferred to the standard culture medium containing 0.7 mg/ml trypsin inhibitor (Roche Diagnostics, Laval, Quebec, Canada). Tissue pieces were mechanically dissociated with micropipettes. Cells were seeded at various densities into the standard culture medium, which also contained EGF (20 ng/ml human recombinant; Peprotech, Rocky Hill, N.J.). Cells were cultured for 7 days in vitro (DIV) and formed floating cell clusters (spheres). All the mice for culture experiments were killed by cervical dislocation.

[1] = test system: neural stem cells in the SVZ; assay: Infusion into the lateral ventricle by osmotic pump; BrdU positive (proliferating) cells counted in the SVZ; format: in vivo, mice; conditions: infusion of combination of LH and prolactin or hCG and prolactin vs LH or hCG; Example 5
Procedure: To examine the number of progenitor cells in the SVZ after treatment, bromodeoxyuridine (BrdU) injections were used to label these cells. Animals received BrdU injections (120 mg/kg, i.p., dissolved in 0.007% NaOH in phosphate buffer) every 2 hours for a 10 hour period.
The sections were post-fixed with acetone for 30 seconds at room temperature and washed with PBS. For BrdU staining, the tissue was treated with 1M HCl for 22 minutes at 60° C. to denature cellular DNA. Sections were then incubated for 24 hours at room temperature in primary antibody (rat anti-BrdU, 1:50) diluted in 0.3% PBS-T containing 10% NGS, washed with PBS, and then incubated with goat-anti-rat secondary antibodies conjugated to biotin (1:200) for 1 hour at room temperature. After rinsing with ddH2O, sections were mounted with Fluorosave, because staining was visualized with CY3-Streptavodin, and viewed with a Zeiss Axiophot fluorescence microscope.
A one-in-ten series of coronal sections (14 μm) from the rostral tip of the lateral ventricle to caudal most aspect of the ventricles (total 10 sections) were collected. BrdU-positive cells were then counted in the defining ependymal-subependymal layer.
Sixteen 8-week-old CD-1 mice (Charles-River, Laval, Quebec, Canada) were anesthetized with sodium pentobarbital (120 mg/kg, i.p.) and implanted with osmotic pumps (Alzet 1007D; Alza, Palo Alto, Calif.). […]

EGF: EGF, 20 ng/ml human recombinant; Peprotech; comparator culture condition
number of secondary spheres (neural stem cells; neural stem cells isolated from female mice): 172.3 and 157.6 and 197.9
number of secondary spheres (neural stem cells; neural stem cells isolated from male mice): 144.4 and 225.1 and 168.2

B1: prolactin: additional agent given in combination with LH or hCG (protein, UniProt P01236 29-227, looked up)
Prolactin: LPICPGGAARCQVTLRDLFDRAVVLSHYIHNLSSEMFSEFDKRYTHGRGFITKAINSCHTSSLATPEDKEQAQQMNQKDFLSLIVSILRSWNEPLYHLVTEVRGMQEAPEAILSKAVEIEEQTKRLLEGMELIVSQVHPETKENEIYPVWSGLPSLQMADEESRLSAYYNLLHCLRRDSHKIDNYLKLLKCRIIHNNNC
proliferation in the SVZ, prolactin added to LH or hCG [1]: further enhances the effects of LH or hCG
self-renewal (the number of secondary spheres from primary spheres) (neural stem cells; prolactin added with LH or hCG in neural stem cell cultures, Example 5): enhanced
